# Experimental data reported in publication PMC5321741, “Arylmethylamino steroids as antiparasitic agents” (Nature Communications, 2017).
# Key:
# [1] = system: Candida albicans JMRC:STI:25000; assay: agar diffusion inhibition zone test; assay type: cell-based; settings: 1o, 2o 1,000 µg/ml in DMSO, amphotericin B 10 µg/ml, solvent DMSO 0, read-out: inhibition zone diameter, Candida albicans (H8)
# Method: (§1) The following organisms were tested at the Hans Knöll Institute in Jena, for their susceptibility to the compounds 1o and 2o: Bacillus subtilis JMRC:STI:10880, Staphylococcus aureus JMRC:ST:10760, Escherichia coli JMRC:ST:33699, Pseudomonas aeruginosa JMRC:ST:33772, Pseudomonas aeruginosa JMRC:ST:337721, Staphylococcus aureus JMRC:ST:33793 (multi-resistant), Enterococcus faecalis JMRC:ST:33700 (Vancomycin-resistant), Mycobacterium vaccae JMRC:STI:10670, Sporobolomyces salmonicolor (Basidiomycetes yeast) JMRC:ST:35974, Candida albicans (Ascomycetes yeast) JMRC:STI:25000, Penicillium notatum JMRC:STI:50164.
# (§2) The bacteria were propagated in Mueller Hinton Broth (Oxoid)[49]. Yeast was propagated in YPD (yeast extract peptone dextrose): 1% yeast extract, 10 g; 2% peptone, 20 g; 2% agar, 20 g; 2% dextrose (glucose), 20 g; Sigma-Y1375. All bacteria and yeast suspensions were freshly made. The cultures were incubated at 37 °C for 16 h. Afterwards, the bacteria concentration from each culture was determined, and 34 ml of nutrient agar was loaded with 10^7 cells. These cultures were stored at 6-8 °C and could be used for seven days for the preparation of test plates. 34 ml of nutrient agar was liquefied and inoculated with the calculated amount of inoculum bacteria suspension at 48–50 °C, a temperature suitable for vegetative forms of bacteria. The inoculated nutrient media (34 ml each) were immediately poured into the prepared test plates (3 mm layer). With a punching device, 12 holes per test plate were punched out. For inhibiting bacterial growth, ciprofloxacin was used as a reference substance. The test substances were dissolved in distilled water, and 5 μg ml^−1 and 50 μl was added to each bacterial culture. For inhibition of fungal growth, amphotericin B served as the reference substance. The test substances were diluted to 10 μg ml^−1 in DMSO/methanol; 50 μl was added to each culture.
# (§3) Configuring the test plate; volumes/punched hole: 50 μl; test solutions/test plate: 1 × 50 μl reference substance. Test plates were cultivated for 18 h at 37 °C. Analysis: Reading the inhibition zones (IZ): As IZ, the zone in which no growth can be determined with the naked eye is measured; the tiniest colonies on the edge of the inhibition zone were therefore not taken into consideration. The diameter (φ) of the IZ is measured in mm. The analysis of IZ φ is carried out internationally with the help of statistic procedures, especially regression analysis. With each test approach, the reference substance was brought along as a control; if there were deviations from allowed IZ φ, the test was repeated.
# (§4) The inhibition of bacterial growth was determined using bacterial cultures grown in Müller-Hinton Bouillon, which was configured at barely visible opacity with the McFarland Standard Nr. 0.5, which indicates a bacterial density of 10^8 ml^−1. This bacterial suspension was diluted with Müller-Hinton Bouillon using 2-fold dilution series in the agar diffusion test.
# (§5) Analysis: The growth in the inhibition zones around the holes containing active substances is thereby compared with the growth in the growth control (no active substance). Bacterial growth was determined according to four measurements: p=presence of colonies in the inhibition zone, P=presence of many colonies in the inhibition zone, A=indication of inhibition, F=facilitation.
# [2] = system: Penicillium notatum JMRC:STI:50164; assay: agar diffusion inhibition zone test; assay type: cell-based; settings: 1o, 2o 1,000 µg/ml in DMSO; amphotericin B 10 µg/ml; solvent DMSO 13p
# Method: as §1, §2, §3, §4, §5
# [3] = system: Sporobolomyces salmonicolor JMRC:ST:35974; assay: agar diffusion inhibition zone test; assay type: cell-based; settings: 1o, 2o 1,000 µg/ml in DMSO; amphotericin B 10 µg/ml; solvent DMSO 20p
# Method: as §1, §2, §3, §4, §5
# [4] = system: Alternaria alternata JMRC:SF:09317; assay: spore inhibition test; assay type: cell-based; settings: 48 h; start concentration 1 mg/ml (1o, 2o), 100 µg/ml (Amphotericin B)
# Method: (§6) The following test organisms were used for their susceptibility to compounds 1o and 2o: Alternaria alternata JMRC:SF:09317, Arthroderma benhamiae JMRC:ST:35888, Aspergillus fumigatus JMRC:Afum:00073=ATCC 46645, Aspergillus terreus JMRC:SF:06307, Candida albicans JMRC:ST:35864, Lichtheimia corymbifera JMRC:SF:09682, Penicillium chrysogenum JMRC:SF:10137, Rhizopus arrhizus (syn. R. oryzae) JMRC:SF:05857=ATCC 56536, CBS 112.07.
# (§7) Fungi were grown on 3% malt extract solidified medium for 1 to 2 weeks at room temperature. Then the plates were washed with 7 ml sterile distilled water, and the spore suspension was filtered through 4 layers of sterile Miracloth (Kalbiochem, USA) to remove the hyphae. The concentration of the spore suspension was set to 2 × 10^4 conidia ml^−1 for the in vitro assays.
# (§8) The spore inhibition assay took place in 96-well microplates (flat base). 50 μl of the prepared spore suspension was seeded and then mixed with 50 μl of the respective inhibitor substance. Tests were started with end concentrations of 1 mg ml^−1 and were then reduced in a minimum of 10 halving steps. Thus a 2 mg ml^−1 stock solution diluted in half ten times with solvent (distilled water, 2% DMSO in distilled water, or 2% DMF in distilled water) and each 50 μl was transferred to 50 μl spore suspension. For each test substance, 12 holes on the microtiter plate were filled. After 24 h incubation (25 °C), the germination of the spores was macroscopically and microscopically examined directly in the microtiter plate via measurement of the optical density and light microscopy using an inverse stereomicroscope with subsequent photodocumentation, respectively. If necessary, the plates were further incubated for another 24 or 48 h, depending on the extent of fungal germination.
# [5] = system: Arthroderma benhamiae JMRC:ST:35888; assay: spore inhibition test; assay type: cell-based; settings: 72 h; start concentration 1 mg/ml (1o, 2o), 100 µg/ml (Amphotericin B)
# Method: as §6, §7, §8
# [6] = system: Aspergillus fumigatus JMRC:Afum:00073; assay: spore inhibition test; assay type: cell-based; settings: 48 h; start concentration 1 mg/ml (1o, 2o), 100 µg/ml (Amphotericin B)
# Method: as §6, §7, §8
# [7] = system: Aspergillus terreus JMRC:SF:06307; assay: spore inhibition test; assay type: cell-based; settings: 48 h; start concentration 1 mg/ml (1o, 2o), 100 µg/ml (Amphotericin B)
# Method: as §6, §7, §8
# [8] = system: Candida albicans JMRC:ST:35864; assay: spore inhibition test; assay type: cell-based; settings: 48 h; start concentration 1 mg/ml (1o, 2o), 100 µg/ml (Amphotericin B)
# Method: as §6, §7, §8
# [9] = system: Lichtheimia corymbifera JMRC:SF:09682; assay: spore inhibition test; assay type: cell-based; settings: 48 h; start concentration 1 mg/ml (1o, 2o), 100 µg/ml (Amphotericin B)
# Method: as §6, §7, §8
# [10] = system: Penicillium chrysogenum JMRC:SF:10137; assay: spore inhibition test; assay type: cell-based; settings: 48 h; start concentration 1 mg/ml (1o, 2o), 100 µg/ml (Amphotericin B)
# Method: as §6, §7, §8
# [11] = system: Rhizopus arrhizus (syn. R. oryzae) JMRC:SF:05857; assay: spore inhibition test; assay type: cell-based; settings: 48 h; start concentration 1 mg/ml (1o, 2o), 100 µg/ml (Amphotericin B)
# Method: as §6, §7, §8
# [12] = system: P. berghei asexual stages; assay: ex vivo drug assay (luciferase), asexual stages; assay type: cell-based; settings: Plasmodium berghei; 24 h incubation, n=3; read-out: IC50 against P. berghei ex vivo
# Method: Plates frozen at −80 °C were thawed at 37 °C. The cells were lysed at room temperature in 10 μl 1x luciferin lysis buffer (Luciferase Cell Culture Lysis 5 × reagent, Promega), and 100 μl luciferase assay substrate was added to each well (Luciferase Assay System, Promega). Luciferase activity was measured on a luminescence plate reader (Mithras LB940 luminometer, Berthold Technologies). The mean of the luciferase activity was calculated for each technical triplicate and normalized as follows: (Lucx−LucRBC)/(Lucsolvent−LucRBC) with Lucx and Lucsolvent=mean luciferase activity for parasites incubated with compound x and with solvent (DMSO for 1o and PBS for MB), respectively, and LucRBC=mean luciferase activity of non-infected red blood cells (background). IC50 values were calculated using Prism (GraphPad, log(inhibitor) versus normalized response—variable slope) in three independent experiments for the P. falciparum gametocyte assay and five for the P. berghei ex vivo drug assay.
# The animal experiments described in this part were performed at the Institut de Biologie Moléculaire et Cellulaire (Strasbourg, France), using facilities and protocols adhering to national regulations of laboratory animal welfare in France. […] Parasitaemia was monitored via FACS analysis (FACSCalibur, BD Bioscience). […]
# [13] = system: P. falciparum (strain 3D7); assay: 72 h 3H-hypoxanthine incorporation assay, asexual blood stages; assay type: cell-based, Plasmodium falciparum; settings: 72 h 3H-hypoxanthine incorporation, asexual blood stages; read-out: Antiplasmodial activity IC50 Pf (3D7)
# HUVEC = assay: antiproliferative activity on HUVEC cells; assay type: cell-based; settings: 72 h
# Method: (§9) Compounds were tested for their antiproliferative activity on HUVEC and K-562 cells and for cytotoxicity on HeLa cells using standard protocols. K-562 (DSM ACC 10), HUVEC (ATCC CRL-1730), and HeLa (DSM ACC 57) cells were cultured as described previously. To assay the antiproliferative and cytotoxic effect, procedures were carried out as described before. In brief, for each experiment with K-562 and HeLa ∼10,000 cells were seeded per well of the 96-well microplates. For the cytotoxicity assay, the HeLa cells were preincubated for 48 h without the test substances. Cells were incubated for 72 h at 37 °C in a humidified atmosphere and 5% CO2. Suspension cultures of K-562 in microplates were analysed by an electronic cell analyzer system CASY 1 (SCHÄRFE, Reutlingen, Germany). The monolayer of the HUVEC and HeLa cells were fixed by glutaraldehyde (MERCK) and stained with a 0.05% solution of methylene blue (SERVA). After gently washing, the stain was eluted by 0.2 ml of 0.33 N HCl in the wells. The optical densities were measured at 660 nm in a microplate reader. The calculations of the different values of GI50 and CC50 were performed with the software Magellan (TECAN).
# K-562 = assay: antiproliferative activity on K-562 cells; assay type: cell-based; settings: 72 h
# Method: as §9
# HeLa = assay: cytotoxicity on HeLa cells; assay type: cell-based; settings: 72 h
# Method: as §9
structure (smiles),measurement,setting,value
"C[C@@H]1[C@H](O)[C@@H](C)/C=C/C=C/C=C/C=C/C=C/C=C/C=C/[C@H](O[C@@H]2O[C@H](C)[C@@H](O)[C@H](N)[C@@H]2O)C[C@@H]2O[C@](O)(C[C@@H](O)C[C@@H](O)[C@H](O)CC[C@@H](O)C[C@@H](O)CC(=O)O[C@H]1C)C[C@H](O)[C@H]2C(=O)O [Amphotericin B, amphotericin B, reference compound]",zone of inhibition at 10 µg/mL,[1],21 mm
same,"inhibition zone diameter, Penicillium notatum (P1)",[2],19p
same,"inhibition zone diameter, Sporobolo. salmonicolor (H4)",[3],18p
same,"antifungal profile, 1st value = microscopic visualization-based observation, Alternaria alternata",[4],0.78
same,"antifungal profile, 2nd value = optical density-based observation, Alternaria alternata",[4],0.1
same,"antifungal profile, 1st value = microscopic visualization-based observation, Arthroderma benhamiae",[5],3.12
same,"antifungal profile, 2nd value = optical density-based observation, Arthroderma benhamiae",[5],0.2
same,"antifungal profile, 1st value = microscopic visualization-based observation, Aspergillus fumigatus",[6],3.12
same,"antifungal profile, 2nd value = optical density-based observation, Aspergillus fumigatus",[6],0.4
same,"antifungal profile, 1st value = microscopic visualization-based observation, Aspergillus terreus",[7],50
same,"antifungal profile, 2nd value = optical density-based observation, Aspergillus terreus",[7],0.2
same,"antifungal profile, 1st value = microscopic visualization-based observation, Candida albicans",[8],0.4
same,"antifungal profile, 2nd value = optical density-based observation, Candida albicans",[8],0.2
same,"antifungal profile, 1st value = microscopic visualization-based observation, Lichtheimia corymbifera",[9],< 0.05
same,"antifungal profile, 2nd value = optical density-based observation, Lichtheimia corymbifera",[9],< 0.05
same,"antifungal profile, 1st value = microscopic visualization-based observation, Penicillium chrysogenum",[10],100
same,"antifungal profile, 2nd value = optical density-based observation, Penicillium chrysogenum",[10],1.56
same,"antifungal profile, 1st value = microscopic visualization-based observation, Rhizopus arrhizus",[11],25
same,"antifungal profile, 2nd value = optical density-based observation, Rhizopus arrhizus",[11],1.56
"CN(C)c1ccc2nc3ccc(=[N+](C)C)cc-3sc2c1 [methylene blue, reference compound]",IC50,[12],0.0026 ± 0.0012 µM
CC(C)CCCC(C)C1CCC2C3CCC4CC(O)C(NCc5ccccc5O)CC4(C)C3CCC12C (stereo not shown) [13c],IC50,[13],0.465 µM
same,GI50,HUVEC,23.7 µM
same,GI50,K-562,17.7 µM
same,CC50,HeLa,85.3 µM
CC(C)CCCC(C)C1CCC2C3CCC4CC(O)C(NCc5ccccc5O)CC4(C)C3CCC12C (stereo not shown) [14c],IC50,[13],0.208 µM
same,GI50,HUVEC,6.7 µM
same,GI50,K-562,8.2 µM
same,CC50,HeLa,21.8 µM
